Tested on: HBsAg
Test: HBsAg assay (CLIA) in HepG2.2.15 cells
Format: cell-based, HBV
Settings: Hepatitis B virus, HepG2.2.15, read-out: IC50 (HBsAg assay)
Description: HepG2.2.15 cells (Acs et al. Proc Natl Acad Sci USA, 84, (1987), 4641-4), a constitutively HBV-expressing cell line were cultured in DMEM+Glutamax-I medium (Invitrogen, Carlsbad, Calif., USA), supplemented with 10% fetal bovine serum (Invitrogen) and G418 (Invitrogen) at a final concentration of 200 mg/L and maintained in 5% CO2 at 37° C.
HepG2.2.15 cells were seeded in duplicate into white, 96-well plates at 1.5×10^4 cells/well. The cells were treated with a three-fold serial dilution series of the compounds in DMSO. The final DMSO concentration in all wells was 1% and DMSO was used as no drug control.
The HBsAg chemiluminescence immunoassay (CLIA) kit (Autobio Diagnostics Co., Zhengzhou, China, Catalog number: CL0310-2) was used to measure the levels of secreted HBV antigens semi-quantitatively. For the detection 50 μL/well culture supernatant was used and HBsAg was quantified using HBsAg chemiluminescence immunoassay (CLIA) kit (Autobio Diagnostics Co., Zhengzhou, China, Catalog number: CL0310-2), 50 μL of the supernatant was transferred to the CLIA assay plate and 50 μL of enzyme conjugate reagent was added into each well. The plates were sealed and gently agitated for 1 hour at room temperature. The supernatant-enzyme-mixture was discarded and wells were washed 6 times with 300 μL of PBS. The residual liquid was removed by plating the CLIA plate […] on absorbent tissue paper. 25 μL of substrates A and B were added to each well. Luminance was measured using a luminometer (Mithras LB 940 Multimode Microplate Reader) after 10 minutes incubation. Dose-response curves were generated and the IC50 value was extrapolated by using the E-WorkBook Suite (ID Business Solutions Ltd., Guildford, UK). The IC50 was defined as the compound concentration (or conditioned media log dilution) at which HBsAg secretion was reduced by 50% compared to the no drug control.

Question: Cc1cnc(C(=O)N2Cc3nc(-c4ncccn4)ncc3C2C)s1 (stereo not shown) [Example 1, (5-Methyl-2-pyrimidin-2-yl-5,7-dihydropyrrolo[3,4-d]pyrimidin-6-yl)-(5-methylthiazol-2-yl)methanone] was tested. Which IC50 did it give?
Answer: 700 nM

Question: How did the IC50 turn out when COc1ccc(C(=O)N2Cc3nc(-c4ncccn4)ncc3C2C)s1 (stereo not shown) [Example 2, (5-Methoxy-2-thienyl)-(5-methyl-2-pyrimidin-2-yl-5,7-dihydropyrrolo[3,4-d]pyrimidin-6-yl)methanone] was run?
Answer: 330 nM

Question: For CC1c2cnc(-c3ncccn3)nc2CN1C(=O)c1cc(C(F)(F)F)cs1 (stereo not shown) [Example 3, (5-Methyl-2-pyrimidin-2-yl-5,7-dihydropyrrolo[3,4-d]pyrimidin-6-yl)-[4-(trifluoromethyl)-2-thienyl]methanone], which IC50 is on record?
Answer: 546 nM

Question: For COc1cc(F)cc(C(=O)N2Cc3nc(-c4ncccn4)ncc3C2C)c1 (stereo not shown) [Example 4, (3-Fluoro-5-methoxy-phenyl)-(5-methyl-2-pyrimidin-2-yl-5,7-dihydropyrrolo[3,4-d]pyrimidin-6-yl)methanone], which IC50 is on record?
Answer: 14100 nM

Question: How did the IC50 turn out when CC1c2cnc(-c3ncccn3)nc2CN1C(=O)c1cccs1 (stereo not shown) [Example 5, (5-Methyl-2-pyrimidin-2-yl-5,7-dihydropyrrolo[3,4-d]pyrimidin-6-yl)-(2-thienyl)methanone] was run?
Answer: 1700 nM

Question: With Cc1csc(C(=O)N2Cc3nc(-c4ncccn4)ncc3C2C)c1 (stereo not shown) [Example 6, (5-Methyl-2-pyrimidin-2-yl-5,7-dihydropyrrolo[3,4-d]pyrimidin-6-yl)-(4-methyl-2-thienyl)methanone] as the compound, how does the IC50 read?
Answer: 1110 nM

Question: CC1c2cnc(-c3ncccn3)nc2CN1C(=O)c1cc(Br)cs1 (stereo not shown) [Example 7, (4-Bromo-2-thienyl)-(5-methyl-2-pyrimidin-2-yl-5,7-dihydropyrrolo[3,4-d]pyrimidin-6-yl)methanone] was tested. Which IC50 did it give?
Answer: 920 nM

Question: How did the IC50 turn out when Cc1ccc(C(=O)N2Cc3nc(-c4ncccn4)ncc3C2C)s1 (stereo not shown) [Example 8, (5-Methyl-2-pyrimidin-2-yl-5,7-dihydropyrrolo[3,4-d]pyrimidin-6-yl)-(5-methyl-2-thienyl)methanone] was run?
Answer: 681 nM

Question: How did the IC50 turn out when CC1c2cnc(-c3ncccn3)nc2CN1C(=O)c1ccc(Cl)s1 (stereo not shown) [Example 9, (5-Chloro-2-thienyl)-(5-methyl-2-pyrimidin-2-yl-5,7-dihydropyrrolo[3,4-d]pyrimidin-6-yl)methanone] was run?
Answer: 380 nM

Question: How did the IC50 turn out when CC1c2cnc(-c3ncccn3)nc2CN1C(=O)c1cnn(C)c1 (stereo not shown) [Example 11, (1-Methylpyrazol-4-yl)-(5-methyl-2-pyrimidin-2-yl-5,7-dihydropyrrolo[3,4-d]pyrimidin-6-yl)methanone] was run?
Answer: 6170 nM

Question: How did the IC50 turn out when CC1c2cnc(-c3ncccn3)nc2CN1C(=O)c1ccn(C)n1 (stereo not shown) [Example 13, (1-Methylpyrazol-3-yl)-(5-methyl-2-pyrimidin-2-yl-5,7-dihydropyrrolo[3,4-d]pyrimidin-6-yl)methanone] was run?
Answer: 3540 nM

Question: How did the IC50 turn out when CC1c2cnc(-c3ncccn3)nc2CN1C(=O)c1nc2ccccc2[nH]1 (stereo not shown) [Example 14, 1H-Benzimidazol-2-yl-(5-methyl-2-pyrimidin-2-yl-5,7-dihydropyrrolo[3,4-d]pyrimidin-6-yl)methanone] was run?
Answer: 422 nM

Question: With COc1ccc(C(=O)N2Cc3nc(-c4ncccn4)ncc3C2C)cc1 (stereo not shown) [Example 15, (4-Methoxyphenyl)-(5-methyl-2-pyrimidin-2-yl-5,7-dihydropyrrolo[3,4-d]pyrimidin-6-yl)methanone] as the compound, how does the IC50 read?
Answer: 26100 nM

Question: For CCn1ccc(C(=O)N2Cc3nc(-c4ncccn4)ncc3C2C)n1 (stereo not shown) [Example 16, (1-Ethylpyrazol-3-yl)-(5-methyl-2-pyrimidin-2-yl-5,7-dihydropyrrolo[3,4-d]pyrimidin-6-yl)methanone], which IC50 is on record?
Answer: 4690 nM

Question: How did the IC50 turn out when CC1c2cnc(-c3ncccn3)nc2CN1C(=O)c1ccc(Br)s1 (stereo not shown) [Example 17, (5-Bromo-2-thienyl)-(5-methyl-2-pyrimidin-2-yl-5,7-dihydropyrrolo[3,4-d]pyrimidin-6-yl)methanone] was run?
Answer: 761 nM

Question: With CC1c2cnc(-c3ncccn3)nc2CN1C(=O)c1ccc([N+](=O)[O-])s1 (stereo not shown) [Example 18, (5-Methyl-2-pyrimidin-2-yl-5,7-dihydropyrrolo[3,4-d]pyrimidin-6-yl)-(5-nitro-2-thienyl)methanone] as the compound, how does the IC50 read?
Answer: 724 nM

Reference: patent publication US11225482B2, “Dihydropyrrolopyrimidines for the treatment and prophylaxis of hepatitis B virus infection” (Hoffmann-La Roche Inc., priority 2017, dated 2022)
